# Measured values as given in patent publication US10183015B2, “Heterocyclic compounds and methods of use” (Medivation Technologies LLC, priority 2015, dated 2019).
# Values joined by “and” are separate entries in the source; they are usually repeats but may differ in a detail not shown here. Equal entries are not always repeated.
# Assays:
# FAS = assay: DIN mouse model: hepatic FAS gene expression; format: in vivo; parameters: key to 2^DDct: expression relative to vehicle group, normalized to 18S; conditions: 20 mg/kg group; for 18S: Gene Expression: FAS table, 18S reference; for 2^DDct / DDct / Dct / FAS: Gene Expression: FAS
# Procedure: (§1) Gene expression analysis. Hepatic expression levels of genes involved in lipid metabolism (FAS, SREBP1, ACC1, SCD1), cholesterol metabolism (HMG-CoAR, LDLR), SREBP proteolysis (SCAP, INSIG1), ER stress (PERK), oxidative stress (NRF2), inflammation (MCP-1), and fibrosis (collagen 1α1) were quantified by RTqPCR. Expression level was normalized to 18S gene expression and relative expression to vehicle group was calculated with the […] method.
# Male C57Bl/6J mice (8 weeks old) were housed in enriched ventilated cages (31×12.5×12.7 cm) throughout the experimental phase. Animals' cages litters were changed at least once a week. Animal were housed 5 per cage on inverted 12-hour light cycle (at 09:00 am lights off), 22±2° C. and 55±10% relative humidity. The acclimation period was 20 days. During the acclimation period, all mice were fed a standard diet (RM1 (E) 801492, SDS) and tap water ad libitum. After the acclimation period, mice were fed with the DIN diet (60% fat, cholesterol enriched) and fructose-enriched tap water ad libitum until the end of the experiment.
# At 6 weeks of diet, mice were 4-hour fasted (09:00 am to 1:00 pm) and blood (150 μl/EDTA) was collected at 01:00 pm by retro-orbital bleeding under isoflurane anesthesia. Mice were then allocated in 2 homogenous groups (n=12/group) according to their plasma levels of ALT (average levels: 685U/L), AST (average levels: 627U/L) and HOMA-IR index (average value: 4.7), into 2 homogenous groups (see values at day 0 in Tables 15A and 15B ALT/AST and Tables 16A and 16B for HOMA-IR). Mice were then treated once daily by oral gavage with vehicle (Group 1) or Compound #37 at 20 mg/kg (Group 2) for 70 days.
# Hepatic expression levels of genes involved in lipid (FAS, SREBP1, ACC1, SCD1), cholesterol metabolism (HMG-CoAR, LDLR), in SREBP proteolysis (SCAP, INSIG1), in ER stress (PERK), oxidative stress (NRF2), and inflammation (MCP-1) were not changed. However, expression of collagen 1α1, involved in liver fibrosis, was reduced by 66% in mice treated with Compound #37 (p<0.05 vs. vehicle).
# ob/ob mice = assay: ob/ob mice: plasma triglycerides, non-esterified fatty acids, total cholesterol, insulin; format: in vivo, mouse; conditions: 8 weeks
# Procedure: Groups of mice were either untreated (group 1) or treated for 8 weeks with vehicle (group 2), or with Compound #37 at 5 mg/kg (group 3), 10 mg/kg (group 4), or 20 mg/kg (group 5). Treatment was daily by oral gavage in vehicle (20% HPβCD). Values are presented as mean±standard error of the mean (sem). A t test was performed to compare the untreated group and the vehicle group. Then Compound #37-treated groups were compared to the vehicle-treated group with a 1-way ANOVA+Dunnett's post-test. […] For each test, a p<0.05 was considered significant. Of note, animal #39, group 1 was excluded from the statistical analysis, due to low values for all parameters measured. Some other values were considered as out-liners and excluded from the statistical analysis when the value was far below the mean minus 2 SD. Excluded values are marked with an asterisk in Tables 21-23.
# NRF2 = assay: Short-term Paigen-diet NASH mouse model: hepatic NRF2 gene expression (RT-qPCR); format: in vivo; parameters: key to ER and oxidative stress gene expression NRF2: Dct: Ct of gene minus Ct of 18S reference; key to ER and oxidative stress gene expression NRF2: 2DDct: expression relative to vehicle group, normalized to 18S (2^-ΔΔCt); conditions: 21 days
# Procedure: To investigate whether Compound #37 prevents the development of pathology associated with NASH and steatosis in an acute exploratory disease model, a study was conducted using a diet-induced acute liver steatosis model in mice. As described below, in this study, C57BL/6J mice were initiated on the Paigen diet and simultaneously treated with Compound #37 (5, 20, and 40 mg/kg/day) or vehicle control (20% HPβCD 10 mL/kg/day) by oral gavage for 21 days.
# After acclimation, 8-week old male C57Bl/6J mice (Charles River) weighing about 25 g were randomized in 4 groups according their body weight and treated once daily around noon by oral gavage with vehicle, or Compound #37 at various for 21 days as follows: Group 1: vehicle-20% (2-hydroxypropyl)-β-cyclodextrin (HP-β-CD) (n=10); Group 2: Compound #37, 5 mg/kg ([…]) Group 4: Compound #37, 40 mg/kg (n=10). During the treatment period, body weight and food intake (measured over 24h) were measured 3 times per week and once a week, respectively. During the acclimation, all mice were fed a standard diet (Special Diets Services RM1 (E), product no. 801492) and tap water ad libitum. After the acclimation period, mice were fed until the end of the experiment with a 60% high fat Paigen diet (60 kcal % fat, 1.25% cholesterol, and 0.5% cholate; D11061901, Research Diet) and tap water ad libitum.
# as §1
# [1] = 5 mg/kg daily oral gavage, group mean
# [2] = 5 mg/kg daily oral gavage, individual animal values, 5 mg/kg
# [3] = 10 mg/kg daily oral gavage, group mean
# [4] = 10 mg/kg daily oral gavage, individual animal values, 10 mg/kg
# [5] = 20 mg/kg daily oral gavage, group mean
# [6] = 20 mg/kg daily oral gavage, individual animal values, 20 mg/kg
structure (smiles),measurement,setting,value
"CC(C)Cc1cc(-c2nc(-c3ccc(NS(=O)(=O)C(F)(F)F)cc3Cl)cs2)ccn1 [Compound 37, N-(3-chloro-4-(2-(2-isobutylpyridin-4-yl)thiazol-4-yl)phenyl)-1,1,1-trifluoromethanesulfonamide]",18S,"FAS; individual animal, 20 mg/kg",12.55 (2×) and 12.84 and 12.43 and 12.35 (2×) and 12.59 and 11.73 and 12.51 and 11.5 and 11.55
same,18S,"FAS; mean, n 11",12.3
same,2^DDct,"FAS; individual animal, 20 mg/kg",2.46 and 1.29 and 0.37 and 1.47 and 0.36 and 1.30 and 0.81 and 0.64 and 0.33 and 0.21 and 1.77
same,DDct,"FAS; individual animal, 20 mg/kg",−1.30 and −0.37 and 1.45 and −0.56 and 1.48 and −0.38 and 0.31 and 0.64 and 1.62 and 2.28 and −0.82
same,Dct,"FAS; individual animal, 20 mg/kg",7.2 and 8.13 and 9.95 and 7.94 and 9.98 and 8.12 and 8.81 and 9.14 and 10.12 and 10.78 and 7.68
same,FAS,"FAS; individual animal, 20 mg/kg",19.75 and 20.68 and 22.79 and 20.37 and 22.33 (2×) and 20.71 and 20.54 and 21.65 and 21.62 and 20.03
same,2^DDct,"FAS; mean, n 11",1
same,DDct,"FAS; mean, n 11",0.40
same,Dct,"FAS; mean, n 11",8.9
same,FAS,"FAS; mean, n 11",21.2
same,plasma insulin,ob/ob mice; [1],274.1 μU/mL
same,plasma non-esterified fatty acids,ob/ob mice; [1],0.7 mM
same,plasma total cholesterol,ob/ob mice; [1],1.8 g/L
same,plasma triglycerides,ob/ob mice; [1],1.6 g/L
same,plasma insulin,"ob/ob mice; 5 mg/kg daily oral gavage, individual animal values (* = excluded from statistical analysis), 5 mg/kg",198.7 μU/mL and 262.7 μU/mL and 181.1 μU/mL and 250.5 μU/mL and 118.7 μU/mL and 394.6 μU/mL and 24.6* μU/mL and 374.6 μU/mL and 512.6 μU/mL and 173.1 μU/mL
same,plasma non-esterified fatty acids,ob/ob mice; [2],1.028 mM and 0.77 mM and 0.616 mM and 0.552 mM and 0.68 mM (2×) and 1.092 mM and 0.783 mM and 0.655 mM and 0.539 mM
same,plasma total cholesterol,ob/ob mice; [2],1.587 g/L and 1.903 g/L and 1.916 g/L and 1.853 g/L and 2.017 g/L and 1.537 g/L and 2.08 g/L and 1.625 g/L and 1.347 g/L and 1.638 g/L
same,plasma triglycerides,ob/ob mice; [2],1.283 g/L and 1.152 g/L and 1.038 g/L and 1.397 g/L (2×) and 1.593 g/L and 1.201 g/L and 1.609 g/L and 2.408 g/L and 2.504 g/L
same,plasma insulin,ob/ob mice; [3],357.3 μU/mL
same,plasma non-esterified fatty acids,ob/ob mice; [3],0.7 mM
same,plasma total cholesterol,ob/ob mice; [3],1.7 g/L
same,plasma triglycerides,ob/ob mice; [3],1.3 g/L
same,plasma insulin,ob/ob mice; [4],123.8 μU/mL and 457.7 μU/mL and 81.9 μU/mL and 949.0 μU/mL and 153.3 μU/mL and 62.6 μU/mL and 508.2 μU/mL and 904.4 μU/mL and 194.4 μU/mL and 137.5 μU/mL
same,plasma non-esterified fatty acids,ob/ob mice; [4],1.009 mM and 0.474 mM and 0.828 mM and 0.7 mM and 0.564 mM and 0.951 mM and 0.738 mM and 0.661 mM and 0.809 mM and 0.307 mM
same,plasma total cholesterol,ob/ob mice; [4],1.587 g/L and 1.865 g/L (2×) and 1.891 g/L (2×) and 1.827 g/L (2×) and 1.234 g/L and 1.651 g/L and 1.183 g/L
same,plasma triglycerides,ob/ob mice; [4],0.94 g/L and 1.12 g/L and 0.875 g/L and 1.218 g/L and 1.528 g/L and 1.299 g/L and 1.968 g/L and 1.381 g/L and 1.593 g/L and 0.777 g/L
same,plasma insulin,ob/ob mice; [5],444.1 μU/mL
same,plasma non-esterified fatty acids,ob/ob mice; [5],0.5 mM
same,plasma total cholesterol,ob/ob mice; [5],1.5 g/L
same,plasma triglycerides,ob/ob mice; [5],1.5 g/L
same,plasma insulin,ob/ob mice; [6],447.3 μU/mL and 10.5 μU/mL and 730.1 μU/mL and 505.0 μU/mL and 254.3 μU/mL and 881.0 μU/mL and 810.7 μU/mL and 483.7 μU/mL and 62.6 μU/mL and 256.2 μU/mL
same,plasma non-esterified fatty acids,ob/ob mice; [6],0.429 mM and 0.642 mM and 0.494 mM and 0.481 mM and 0.423 mM (2×) and 0.513 mM and 0.397 mM and 0.687 mM and 0.597 mM
same,plasma total cholesterol,ob/ob mice; [6],1.234 g/L and 0.893 g/L and 1.499 g/L and 1.714 g/L and 1.663 g/L (2×) and 1.625 g/L and 1.587 g/L and 1.36 g/L and 1.272 g/L
same,plasma triglycerides,ob/ob mice; [6],0.875 g/L and 1.886 g/L and 1.511 g/L (2×) and 1.642 g/L and 1.854 g/L and 1.283 g/L and 1.308 g/L and 1.381 g/L and 1.968 g/L
same,ER and oxidative stress gene expression NRF2: 2DDct,"NRF2; 5 mg/kg, group mean, n 10",0.76
same,ER and oxidative stress gene expression NRF2: 18S,"NRF2; 5 mg/kg, group mean, n 10",12.3
same,ER and oxidative stress gene expression NRF2: DDct,"NRF2; 5 mg/kg, group mean, n 10",0.57
same,ER and oxidative stress gene expression NRF2: Dct,"NRF2; 5 mg/kg, group mean, n 10",11.5
same,ER and oxidative stress gene expression NRF2: NRF2,"NRF2; 5 mg/kg, group mean, n 10",23.8
same,ER and oxidative stress gene expression NRF2: 2DDct,"NRF2; 5 mg/kg, individual animals",0.76 and 0.49 and 0.57 and 1.91 and 0.32 and 0.4 and 0.82 and 1.02 and 0.67 and 0.68
same,ER and oxidative stress gene expression NRF2: 18S,"NRF2; 5 mg/kg, individual animals",13.46 and 13.11 and 11.61 and 13.35 (2×) and 12.03 and 11.6 and 11.79 and 11.14 and 11.12
same,ER and oxidative stress gene expression NRF2: DDct,"NRF2; 5 mg/kg, individual animals",0.4 and 1.02 and 0.81 and −0.93 and 1.66 and 1.32 and 0.29 and −0.03 and 0.58 and 0.56
same,ER and oxidative stress gene expression NRF2: Dct,"NRF2; 5 mg/kg, individual animals",11.34 and 11.96 and 11.75 and 10.01 and 12.6 and 12.26 and 11.23 and 10.91 and 11.52 and 11.5
same,ER and oxidative stress gene expression NRF2: NRF2,"NRF2; 5 mg/kg, individual animals",24.8 and 25.07 and 23.36 (2×) and 24.63 and 25.61 and 22.83 and 22.7 and 22.66 and 22.62
same,ER and oxidative stress gene expression NRF2: 2DDct,"NRF2; 20 mg/kg, group mean, n 6",1.08
same,ER and oxidative stress gene expression NRF2: 18S,"NRF2; 20 mg/kg, group mean, n 6",12.2
same,ER and oxidative stress gene expression NRF2: DDct,"NRF2; 20 mg/kg, group mean, n 6",0.03
same,ER and oxidative stress gene expression NRF2: Dct,"NRF2; 20 mg/kg, group mean, n 6",11
same,ER and oxidative stress gene expression NRF2: NRF2,"NRF2; 20 mg/kg, group mean, n 6",23.2
same,ER and oxidative stress gene expression NRF2: 2DDct,"NRF2; 20 mg/kg, individual animals",0.76 (2×) and 0.91 and 2.23 and 0.65 and 1.13
same,ER and oxidative stress gene expression NRF2: 18S,"NRF2; 20 mg/kg, individual animals",12.91 and 12.29 and 12.2 and 13.03 and 11.49 and 11.26
same,ER and oxidative stress gene expression NRF2: DDct,"NRF2; 20 mg/kg, individual animals",0.39 and 0.4 and 0.13 and −1.16 and 0.62 and −0.18
same,ER and oxidative stress gene expression NRF2: Dct,"NRF2; 20 mg/kg, individual animals",11.33 and 11.34 and 11.07 and 9.78 and 11.56 and 10.76
same,ER and oxidative stress gene expression NRF2: NRF2,"NRF2; 20 mg/kg, individual animals",24.24 and 23.63 and 23.27 and 22.81 and 23.05 and 22.02
